How the values were obtained:
Assay in all cases: relative viability (nuclei count vs DMSO), 5 days (fraction); higher = more cells survive
[1] = system: 201T
In short: (§1)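 Lung cancer cell lines were pin-tool dosed in 1536-well plates on the day after seeding, with either a lone drug or a fixed anchor-drug dose plus five library-drug doses (not always all listed) in √10 steps. Nuclei were counted on 4× images after 5 days. Relative viability is the ratio of treated-well to vehicle-well nuclei counts, with each value a median of duplicate plates.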

[2] = system: BEN
In short: as §1

[3] = system: COR-L 105
In short: as §1

[4] = system: EKVX
In short: as §1

[5] = system: EPLC-272H
In short: as §1

[6] = system: H3255
In short: as §1

[7] = system: HCC-44
In short: as §1

[8] = system: HCC-827
In short: as §1

[9] = system: LCLC-97TM1
In short: as §1

[10] = system: LOU-NH91
In short: as §1

O=c1cc(-c2cccc3c2Sc2ccccc2S3)oc(N2CCOCC2)c1 + CC1(C)CCC(c2ccc(Cl)cc2)=C(CN2CCN(c3ccc(C(=O)NS(=O)(=O)c4ccc(N[C@H](CCN5CCOCC5)CSc5ccccc5)c(S(=O)(=O)C(F)(F)F)c4)cc3)CC2)C1 [Navitoclax] (partner 0.5 µM)
relative viability ([1]; first compound 0.08 µM): 1.15
relative viability ([1]; first compound 0.253 µM): 1.2
relative viability ([1]; first compound 0.8 µM): 1.23
relative viability ([1]; first compound 2.53 µM): 1.2
relative viability ([1]; first compound 8 µM): 1.15
relative viability ([2]; first compound 0.08 µM): 0.0636
relative viability ([2]; first compound 0.253 µM): 0.0609
relative viability ([2]; first compound 0.8 µM): 0.0602
relative viability ([2]; first compound 2.53 µM): 0.0598
relative viability ([2]; first compound 8 µM): 0.0681
relative viability ([3]; first compound 0.08 µM): 0.649
relative viability ([3]; first compound 0.253 µM): 0.849
relative viability ([3]; first compound 0.8 µM): 0.678
relative viability ([3]; first compound 2.53 µM): 0.642
relative viability ([3]; first compound 8 µM): 0.993
relative viability ([4]; first compound 0.08 µM): 0.975
relative viability ([4]; first compound 0.253 µM): 0.998
relative viability ([4]; first compound 0.8 µM): 0.888
relative viability ([4]; first compound 2.53 µM): 0.954
relative viability ([4]; first compound 8 µM): 0.965
relative viability ([5]; first compound 0.08 µM): 1.09
relative viability ([5]; first compound 0.253 µM): 1.17
relative viability ([5]; first compound 0.8 µM): 1.17
relative viability ([5]; first compound 2.53 µM): 1.09
relative viability ([5]; first compound 8 µM): 1.2
relative viability ([6]; first compound 0.08 µM): 0.55
relative viability ([6]; first compound 0.253 µM): 0.468
relative viability ([6]; first compound 0.8 µM): 0.474
relative viability ([6]; first compound 2.53 µM): 0.61
relative viability ([6]; first compound 8 µM): 0.698
relative viability ([7]; first compound 0.08 µM): 0.916
relative viability ([7]; first compound 0.253 µM): 1.2
relative viability ([7]; first compound 0.8 µM): 0.859
relative viability ([7]; first compound 2.53 µM): 0.96
relative viability ([7]; first compound 8 µM): 0.905
relative viability ([8]; first compound 0.08 µM): 1.05
relative viability ([8]; first compound 0.253 µM): 1.06
relative viability ([8]; first compound 0.8 µM): 1.08
relative viability ([8]; first compound 2.53 µM): 0.998
relative viability ([8]; first compound 8 µM): 1.07
relative viability ([9]; first compound 0.08 µM): 0.425
relative viability ([9]; first compound 0.253 µM): 0.597
relative viability ([9]; first compound 0.8 µM): 0.374
relative viability ([9]; first compound 2.53 µM): 0.329
relative viability ([9]; first compound 8 µM): 0.372
relative viability ([10]; first compound 0.08 µM): 0.711
relative viability ([10]; first compound 0.253 µM): 0.68
relative viability ([10]; first compound 0.8 µM): 0.573
relative viability ([10]; first compound 2.53 µM): 0.59
relative viability ([10]; first compound 8 µM): 0.705
